For six compounds, MIC results are on record in ChEMBL document CHEMBL5528028, “Discovery of benzopyridone cyanoacetates as new type of potential broad-spectrum antibacterial candidates” (Eur J Med Chem, 2024).

Format in all cases: functional
In assay [1] the test system is Staphylococcus aureus. Put plainly: Antibacterial activity against Staphylococcus aureus assessed growth inhibition by micro broth dilution method.
In the next assay the test system is Klebsiella pneumoniae. Put plainly: Antibacterial activity against Klebsiella pneumonia assessed growth inhibition by micro broth dilution method. In general terms: Broth dilution looks for growth in wells or tubes with falling amounts of substance.
Assay [2] concerns Staphylococcus aureus. The assay is described as follows: Antibacterial activity against methicillin-resistant Staphylococcus aureus assessed growth inhibition by micro broth dilution method.
The test system of assay [3] is Escherichia coli. Put plainly: Antibacterial activity against Escherichia coli ATCC 25922 assessed growth inhibition by micro broth dilution method.
The subject of assay [4] is Escherichia coli. Put plainly: Antibacterial activity against Escherichia coli assessed growth inhibition by micro broth dilution method.
In the next assay the test system is Acinetobacter baumannii. The assay is described as follows: Antibacterial activity against Acinetobacter baumannii assessed growth inhibition by micro broth dilution method.
The test system of assay [5] is Pseudomonas aeruginosa. The assay is described as follows: Antibacterial activity against Pseudomonas aeruginosa ATCC 27853 assessed growth inhibition by micro broth dilution method.
Assay [6] concerns Staphylococcus aureus. The assay is described as follows: Antibacterial activity against Staphylococcus aureus ATCC 25923 assessed growth inhibition by micro broth dilution method.
Assay [7] concerns Staphylococcus aureus. The assay is described as follows: Antibacterial activity against Staphylococcus aureus ATCC 29213 assessed growth inhibition by micro broth dilution method.
A further assay has as its system Enterococcus faecalis. The assay is described as follows: Antibacterial activity against Enterococcus faecalis assessed growth inhibition by micro broth dilution method.
For assay [8], the system named is Pseudomonas aeruginosa. The assay is described as follows: Antibacterial activity against Pseudomonas aeruginosa assessed growth inhibition by micro broth dilution method.

The term MIC denotes the lowest concentration that inhibits growth of the organism.

Values after ≈ are worked out from the molar mass of the structure shown.

In the case of `CCOC(=O)c1cn2c3c(c([C-](C#N)C(=O)OCC)c(F)cc3c1=O)OC[C@@H]2C.[Na+]` (stereo partly specified), the MIC with Staphylococcus aureus [1] came to 256 µg/mL; in the assay with Klebsiella pneumoniae it was 256 µg/mL; in the assay with Staphylococcus aureus [2], 128 µg/mL; with Escherichia coli [3], 64 µg/mL; in the assay with Escherichia coli [4], 64 µg/mL; in the assay on Acinetobacter baumannii it was 128 µg/mL. The MIC against Pseudomonas aeruginosa [5] amounted to 64 µg/mL; with Staphylococcus aureus [6], 4 µg/mL; against Staphylococcus aureus [7], 256 µg/mL; in the assay with Enterococcus faecalis, 128 µg/mL; against Pseudomonas aeruginosa [8], 256 µg/mL.

`CCCCCn1cc(C(=O)OCC)c(=O)c2cc(F)c([C-](C#N)C(=O)OCC)cc21.[Na+]` (stereo unspecified): the MIC against Staphylococcus aureus [1] was determined as 32 µg/mL; against Klebsiella pneumoniae, 4 µg/mL; in the assay on Staphylococcus aureus [2] it was 32 µg/mL; in the assay on Escherichia coli [3] it was 1 µg/mL; in the assay with Escherichia coli [4] it was 4 µg/mL; against Acinetobacter baumannii, 4 µg/mL. Moreover, the MIC in the assay on Pseudomonas aeruginosa [5] came to 4 µg/mL; against Staphylococcus aureus [6], 1 µg/mL; against Staphylococcus aureus [7] it was 4 µg/mL; against Enterococcus faecalis, 4 µg/mL; against Pseudomonas aeruginosa [8] it was 4 µg/mL.

On to `CCOC(=O)c1cn(CC2CCC2)c2cc(F)c(F)cc2c1=O`, for which the MIC in the assay on Staphylococcus aureus [1] came out at 64 µg/mL (≈ 199 µM); against Klebsiella pneumoniae, 32 µg/mL (≈ 99.6 µM); against Staphylococcus aureus [2], 256 µg/mL (≈ 797 µM); in the assay on Escherichia coli [3] it was 128 µg/mL (≈ 398 µM); with Escherichia coli [4] it was 16 µg/mL (≈ 49.8 µM); in the assay with Acinetobacter baumannii it was 128 µg/mL (≈ 398 µM). The MIC in the assay with Pseudomonas aeruginosa [5] is 256 µg/mL (≈ 797 µM); in the assay with Staphylococcus aureus [6], 16 µg/mL (≈ 49.8 µM); against Staphylococcus aureus [7], 256 µg/mL (≈ 797 µM); in the assay on Enterococcus faecalis, 128 µg/mL (≈ 398 µM); against Pseudomonas aeruginosa [8] it was 32 µg/mL (≈ 99.6 µM).

For the compound `CCOC(=O)c1cn(CCN2CCOCC2)c2cc([C-](C#N)C(=O)OCC)c(F)cc2c1=O.[Na+]` (stereo unspecified), the MIC against Staphylococcus aureus [1], with Klebsiella pneumoniae, against Staphylococcus aureus [2], against Escherichia coli [3], in the assay with Escherichia coli [4] and against Acinetobacter baumannii was 256 µg/mL in each case. The MIC in the assay with Pseudomonas aeruginosa [5], against Staphylococcus aureus [6], against Staphylococcus aureus [7], against Enterococcus faecalis and against Pseudomonas aeruginosa [8] was 256 µg/mL throughout.

`CCOC(=O)c1cn(CC)c2cc([C-](C#N)C(=O)OCC)c(F)cc2c1=O.[Na+]` (stereo unspecified): the MIC with Staphylococcus aureus [1] came out at 256 µg/mL; against Klebsiella pneumoniae, 32 µg/mL; against Staphylococcus aureus [2], 64 µg/mL; in the assay with Escherichia coli [3], 32 µg/mL; against Escherichia coli [4], 64 µg/mL; in the assay with Acinetobacter baumannii, 32 µg/mL. For the same compound, the MIC with Pseudomonas aeruginosa [5] was 32 µg/mL; against Staphylococcus aureus [6], 2 µg/mL; in the assay with Staphylococcus aureus [7], 64 µg/mL; against Enterococcus faecalis, 64 µg/mL; in the assay with Pseudomonas aeruginosa [8], 32 µg/mL.

Consider `CCOC(=O)c1cn(Cc2ccccc2)c2cc(C(C#N)C(=O)OCC)c(F)cc2c1=O` (stereo unspecified), for which the MIC is 8 µg/mL (≈ 18.3 µM) with Staphylococcus aureus [1]; 2 µg/mL (≈ 4.58 µM) with Klebsiella pneumoniae; 32 µg/mL (≈ 73.3 µM) in the assay on Staphylococcus aureus [2]; 16 µg/mL (≈ 36.7 µM) against Escherichia coli [3]; 32 µg/mL (≈ 73.3 µM) in the assay with Escherichia coli [4]; 8 µg/mL (≈ 18.3 µM) in the assay on Acinetobacter baumannii. Further, the MIC amounted to 2 µg/mL (≈ 4.58 µM) with Pseudomonas aeruginosa [5]; 2 µg/mL (≈ 4.58 µM) in the assay on Staphylococcus aureus [6]; 2 µg/mL (≈ 4.58 µM) against Staphylococcus aureus [7]; 16 µg/mL (≈ 36.7 µM) in the assay with Enterococcus faecalis; 0.5 µg/mL (≈ 1.15 µM) against Pseudomonas aeruginosa [8].
